According to paper PMC10349806 (Nature Communications, 2023):
“And” between values parts separate entries of the source, which are not always exact repeats. Equal values may be shown once.

Molecular target: PfCRT^Dd2 (Plasmodium falciparum, UniProt Q9N623, A220S/I356T/K76T/M74I/N326S/N75E/Q271E/R371I)
Assay: Drug uptake assay, X. laevis oocytes expressing PfCRT^Dd2
Assay type: cell-based
Settings: for v-1 pH 4.5 / v-1 pH 5.0 / v-1 pH 5.5 / v-1 pH 6.0: Lineweaver-Burk
Protocol: Oocytes were obtained as described previously. Briefly, adult (>2 years old) female X. laevis frogs (NASCO) were anesthetized in a cooled solution of ethyl 3-amino benzoate methanesulfonate (0.1%, w/v), followed by a surgical removal of parts of the ovary. The ovary lobes were carefully dissected and small pieces of oocytes were incubated in Ca^2+-free ND96 buffer (96 mM NaCl, 2 mM KCl, 1 mM MgCl2 buffered with 5 mM HEPES/NaOH, pH 7.5) supplemented with collagenase D (0.1%, w/v; Roche), BSA (0.5%, w/v), and 9 mm Na2HPO4 at 18 °C for 14-16 h while gentle shaking. After incubation, the oocytes were carefully washed several times with ND96 buffer (96 mM NaCl, 2 mM KCl, 1.8 mM CaCl2, 1 mM MgCl2 buffered with 5 mM HEPES/NaOH, pH 7.5) supplemented with 100 mg l^−1 gentamycin). Defolliculated and healthy-looking stage V-VI oocytes were manually selected for RNA microinjection. The RNA was generated as following: The codon-optimized sequences of PfCRT variants were cloned into the pSP64T expression vector. After vector linearization using the restriction endonucleases BamHI or SalI (New England Biolabs), transcription was performed using the in vitro SP6 mMessage mMachine Kit (Ambion)[34]. The obtained RNA was kept at −80 °C and diluted with nuclease-free water to a concentration of 0.6 μg μl^−1. Precision-bore glass capillary tubes (3.5-inch glass capillaries; Drummond Scientific Co.) were pulled on a vertical puller (P-87 Flaming/Brown micropipette puller, Sutter Instrument Co.), graduated, and placed on a microinjector (Nanoject II Auto-Nanoliter Injector, Drummond Scientific Co.). 50 nl of nuclease-free water alone (control oocytes) or 50 nl of 0.6 μg μl^−1 RNA were injected under stereomicroscopic control. Injected oocytes were incubated for 46–72 h at 18 °C with twice-daily buffer changes before usage in experiments.
Drug uptake assays were performed as described previously[21],[22],[24],[34]. […] The direction of radio-labeled drug transport is here from the mostly acidic extracellular solution (pH 4.5 or 6.0, as indicated) into the oocyte cytosol (pH ∼ 7.2), which corresponds to the efflux of drug from the acidic digestive vacuole (pH 5.2) into the parasite cytoplasm (pH 7.2). The topology of PfCRT in the oolemma is such that both the N- and C-terminus face the extracellular milieu[3],[22]. In the parasite, the N- and C-terminus face the lumen of the digestive vacuole. […] For determination of the amount of drug uptake for each oocyte, the reaction medium was removed and the oocytes were washed three times with 2 ml of ice-cold ND96 buffer. Each oocyte was individually transferred to a scintillation vial containing 5% sodium dodecyl sulfate (200 μl) for lysis. […] Oocytes that were injected with water instead of RNA were analyzed in parallel, representing the uptake of a drug by diffusion and/or endogenous permeation pathways. The resulting value represents the “background“ level of drug accumulation in oocytes (in-depth discussion in[22]). The specific PfCRT-mediated uptake was determined by subtracting the corresponding background value measured in water-injected oocytes from that of PfCRT-expressing oocytes. In all cases, at least three separate experiments were performed on oocytes from different frogs (biological replicate), and for each condition in an experiment, measurements were made from 10 oocytes per treatment. For pH 5.5, 6.0, and 6.5, ND96 was buffered with 5 mM MES/Tris base. For pH 4.5, 5 mM Homo-Pipes was used as a buffer and 5 mM HEPES for uptake at pH 7.0.

Chain of PfCRT^Dd2 (Q9N623 whole entry A220S/I356T/K76T/M74I/N326S/N75E/Q271E/R371I): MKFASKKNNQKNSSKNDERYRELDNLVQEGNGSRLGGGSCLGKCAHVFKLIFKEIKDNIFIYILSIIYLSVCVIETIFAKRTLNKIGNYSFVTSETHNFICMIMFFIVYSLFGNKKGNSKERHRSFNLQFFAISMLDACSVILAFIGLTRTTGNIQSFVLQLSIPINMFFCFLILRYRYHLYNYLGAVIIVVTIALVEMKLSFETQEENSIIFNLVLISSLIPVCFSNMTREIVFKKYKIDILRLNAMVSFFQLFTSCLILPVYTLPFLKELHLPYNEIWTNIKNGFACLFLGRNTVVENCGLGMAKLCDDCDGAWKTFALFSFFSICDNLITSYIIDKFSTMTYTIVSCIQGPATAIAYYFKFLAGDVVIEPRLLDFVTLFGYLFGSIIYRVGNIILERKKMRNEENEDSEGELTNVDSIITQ

CCN(CC)CCCC(C)Nc1ccnc2cc(Cl)ccc12 (stereo not shown) [CQ, chloroquine]
PfCRTDd2 transport activity 10 µM CQ pH 4.5 (10 µM CQ, pH 4.5, individual replicates (Fig 4a)): 0.37 pmol oocyte-1 h-1 and 0.31 pmol oocyte-1 h-1 and 0.76 pmol oocyte-1 h-1 and 0.49 pmol oocyte-1 h-1
PfCRTDd2 transport activity (10 µM CQ, pH 5.0, 60 min): 0.54 pmol oocyte-1 h-1
PfCRTDd2 transport activity 10 µM CQ pH 5.0 (10 µM CQ, pH 5.0, individual replicates (Fig 4a)): 0.58 pmol oocyte-1 h-1 and 0.59 pmol oocyte-1 h-1 and 0.45 pmol oocyte-1 h-1
PfCRTDd2 transport activity (10 µM CQ, pH 5.5, 60 min): 0.69 pmol oocyte-1 h-1
PfCRTDd2 transport activity 10 µM CQ pH 5.5 (10 µM CQ, pH 5.5, individual replicates (Fig 4a)): 0.67 pmol oocyte-1 h-1 and 0.82 pmol oocyte-1 h-1 and 0.59 pmol oocyte-1 h-1 and 0.68 pmol oocyte-1 h-1
PfCRTDd2 transport activity (10 µM CQ, pH 6.0, 60 min): 0.94 pmol oocyte-1 h-1 and 0.95 pmol oocyte-1 h-1 and 0.80 pmol oocyte-1 h-1 and 1.08 pmol oocyte-1 h-1
PfCRTDd2 transport activity 10 µM CQ pH 6.0 (10 µM CQ, pH 6.0, individual replicates (Fig 4a)): 0.95 pmol oocyte-1 h-1 and 0.80 pmol oocyte-1 h-1 and 1.08 pmol oocyte-1 h-1
PfCRTDd2-mediated CQ transport activity (10 µM CQ, time 0 min): 0.00 pmol oocyte-1
PfCRTDd2-mediated CQ transport activity (10 µM CQ, time 30 min): 0.73 pmol oocyte-1
PfCRTDd2-mediated CQ transport activity (10 µM CQ, time 60 min): 1.10 pmol oocyte-1
PfCRTDd2-mediated CQ transport activity (10 µM CQ, time 90 min): 2.55 pmol oocyte-1
v-1 pH 4.5 (10 µM CQ): 2.08 (pmol oocyte-1 h-1)-1
v-1 pH 5.0 (10 µM CQ): 1.85 (pmol oocyte-1 h-1)-1
v-1 pH 5.5 (10 µM CQ): 1.45 (pmol oocyte-1 h-1)-1
v-1 pH 6.0 (10 µM CQ): 1.06 (pmol oocyte-1 h-1)-1
PfCRTDd2 transport activity 50 µM CQ pH 4.5 (50 µM CQ, pH 4.5, individual replicates (Fig 4a)): 0.97 pmol oocyte-1 h-1 and 2.03 pmol oocyte-1 h-1 and 1.14 pmol oocyte-1 h-1 and 1.28 pmol oocyte-1 h-1
PfCRTDd2 transport activity 50 µM CQ pH 5.0 (50 µM CQ, pH 5.0, individual replicates (Fig 4a)): 1.93 pmol oocyte-1 h-1 and 2.00 pmol oocyte-1 h-1 and 3.15 pmol oocyte-1 h-1 and 1.59 pmol oocyte-1 h-1 and 2.59 pmol oocyte-1 h-1 and 2.54 pmol oocyte-1 h-1 and 1.86 pmol oocyte-1 h-1 and 2.77 pmol oocyte-1 h-1 and 2.58 pmol oocyte-1 h-1 and 3.10 pmol oocyte-1 h-1
PfCRTDd2 transport activity 50 µM CQ pH 5.5 (50 µM CQ, pH 5.5, individual replicates (Fig 4a)): 2.14 pmol oocyte-1 h-1 and 3.86 pmol oocyte-1 h-1 and 4.54 pmol oocyte-1 h-1 and 3.39 pmol oocyte-1 h-1 and 3.66 pmol oocyte-1 h-1 and 1.74 pmol oocyte-1 h-1 and 6.45 pmol oocyte-1 h-1 and 4.72 pmol oocyte-1 h-1 and 2.44 pmol oocyte-1 h-1 and 3.17 pmol oocyte-1 h-1 and 4.57 pmol oocyte-1 h-1 and 4.41 pmol oocyte-1 h-1 and 3.78 pmol oocyte-1 h-1
PfCRTDd2 transport activity 50 µM CQ pH 6.0 (50 µM CQ, pH 6.0, individual replicates (Fig 4a)): 4.84 pmol oocyte-1 h-1 and 4.32 pmol oocyte-1 h-1 and 4.63 pmol oocyte-1 h-1
PfCRTDd2-mediated CQ transport activity (50 µM CQ, time 0 min): 0.00 pmol oocyte-1
PfCRTDd2-mediated CQ transport activity (50 µM CQ, time 30 min): 3.63 pmol oocyte-1
PfCRTDd2-mediated CQ transport activity (50 µM CQ, time 60 min): 5.55 pmol oocyte-1
PfCRTDd2-mediated CQ transport activity (50 µM CQ, time 90 min): 7.51 pmol oocyte-1
v-1 pH 4.5 (50 µM CQ): 0.52 (pmol oocyte-1 h-1)-1
v-1 pH 5.0 (50 µM CQ): 0.43 (pmol oocyte-1 h-1)-1
v-1 pH 5.5 (50 µM CQ): 0.27 (pmol oocyte-1 h-1)-1
v-1 pH 6.0 (50 µM CQ): 0.22 (pmol oocyte-1 h-1)-1
PfCRTDd2 transport activity (100 µM CQ, pH 4.5, 60 min): 5.17 pmol oocyte-1 h-1 and 4.60 pmol oocyte-1 h-1 and 5.99 pmol oocyte-1 h-1 and 5.32 pmol oocyte-1 h-1 and 4.77 pmol oocyte-1 h-1
PfCRTDd2 transport activity 100 µM CQ pH 4.5 (100 µM CQ, pH 4.5, individual replicates (Fig 4a)): 4.60 pmol oocyte-1 h-1 and 5.99 pmol oocyte-1 h-1 and 5.32 pmol oocyte-1 h-1 and 4.77 pmol oocyte-1 h-1
PfCRTDd2 transport activity (100 µM CQ, pH 5.0, 60 min): 5.48 pmol oocyte-1 h-1
PfCRTDd2 transport activity 100 µM CQ pH 5.0 (100 µM CQ, pH 5.0, individual replicates (Fig 4a)): 4.33 pmol oocyte-1 h-1 and 6.22 pmol oocyte-1 h-1 and 5.90 pmol oocyte-1 h-1
PfCRTDd2 transport activity (100 µM CQ, pH 5.5, 60 min): 7.61 pmol oocyte-1 h-1
PfCRTDd2 transport activity 100 µM CQ pH 5.5 (100 µM CQ, pH 5.5, individual replicates (Fig 4a)): 6.37 pmol oocyte-1 h-1 and 9.40 pmol oocyte-1 h-1 and 7.07 pmol oocyte-1 h-1
PfCRTDd2 transport activity (100 µM CQ, pH 6.0, 60 min): 9.42 pmol oocyte-1 h-1 and 10.41 pmol oocyte-1 h-1 and 9.48 pmol oocyte-1 h-1 and 8.36 pmol oocyte-1 h-1
PfCRTDd2 transport activity 100 µM CQ pH 6.0 (100 µM CQ, pH 6.0, individual replicates (Fig 4a)): 10.41 pmol oocyte-1 h-1 and 9.48 pmol oocyte-1 h-1 and 8.36 pmol oocyte-1 h-1
PfCRTDd2-mediated CQ transport activity (100 µM CQ, time 0 min): 0.00 pmol oocyte-1
PfCRTDd2-mediated CQ transport activity (100 µM CQ, time 30 min): 5.73 pmol oocyte-1
PfCRTDd2-mediated CQ transport activity (100 µM CQ, time 60 min): 8.29 pmol oocyte-1
PfCRTDd2-mediated CQ transport activity (100 µM CQ, time 90 min): 9.71 pmol oocyte-1
v-1 pH 4.5 (100 µM CQ): 0.19 (pmol oocyte-1 h-1)-1
v-1 pH 5.0 (100 µM CQ): 0.18 (pmol oocyte-1 h-1)-1
v-1 pH 5.5 (100 µM CQ): 0.13 (pmol oocyte-1 h-1)-1
v-1 pH 6.0 (100 µM CQ): 0.11 (pmol oocyte-1 h-1)-1
PfCRTDd2 transport activity (200 µM CQ, pH 4.5, 60 min): 7.21 pmol oocyte-1 h-1 and 7.32 pmol oocyte-1 h-1 and 8.24 pmol oocyte-1 h-1 and 6.30 pmol oocyte-1 h-1 and 7.78 pmol oocyte-1 h-1 and 6.41 pmol oocyte-1 h-1
PfCRTDd2 transport activity 200 µM CQ pH 4.5 (200 µM CQ, pH 4.5, individual replicates (Fig 4a)): 7.32 pmol oocyte-1 h-1 and 8.24 pmol oocyte-1 h-1 and 6.30 pmol oocyte-1 h-1 and 7.78 pmol oocyte-1 h-1 and 6.41 pmol oocyte-1 h-1
PfCRTDd2 transport activity (200 µM CQ, pH 5.0, 60 min): 9.98 pmol oocyte-1 h-1
PfCRTDd2 transport activity 200 µM CQ pH 5.0 (200 µM CQ, pH 5.0, individual replicates (Fig 4a)): 9.29 pmol oocyte-1 h-1 and 10.18 pmol oocyte-1 h-1 and 10.48 pmol oocyte-1 h-1
PfCRTDd2 transport activity (200 µM CQ, pH 5.5, 60 min): 10.75 pmol oocyte-1 h-1
PfCRTDd2 transport activity 200 µM CQ pH 5.5 (200 µM CQ, pH 5.5, individual replicates (Fig 4a)): 11.07 pmol oocyte-1 h-1 and 10.25 pmol oocyte-1 h-1 and 11.13 pmol oocyte-1 h-1 and 10.55 pmol oocyte-1 h-1
PfCRTDd2 transport activity (200 µM CQ, pH 6.0, 60 min): 13.53 pmol oocyte-1 h-1 and 12.77 pmol oocyte-1 h-1 and 14.22 pmol oocyte-1 h-1 and 13.59 pmol oocyte-1 h-1
PfCRTDd2 transport activity 200 µM CQ pH 6.0 (200 µM CQ, pH 6.0, individual replicates (Fig 4a)): 12.77 pmol oocyte-1 h-1 and 14.22 pmol oocyte-1 h-1 and 13.59 pmol oocyte-1 h-1
PfCRTDd2-mediated CQ transport activity (200 µM CQ, time 0 min): 0.00 pmol oocyte-1
PfCRTDd2-mediated CQ transport activity (200 µM CQ, time 30 min): 9.39 pmol oocyte-1
PfCRTDd2-mediated CQ transport activity (200 µM CQ, time 60 min): 15.25 pmol oocyte-1
PfCRTDd2-mediated CQ transport activity (200 µM CQ, time 90 min): 18.81 pmol oocyte-1
v-1 pH 4.5 (200 µM CQ): 0.14 (pmol oocyte-1 h-1)-1
v-1 pH 5.0 (200 µM CQ): 0.10 (pmol oocyte-1 h-1)-1
v-1 pH 5.5 (200 µM CQ): 0.09 (pmol oocyte-1 h-1)-1
v-1 pH 6.0 (200 µM CQ): 0.0739 (pmol oocyte-1 h-1)-1
PfCRTDd2 transport activity (300 µM CQ, pH 4.5, 60 min): 8.79 pmol oocyte-1 h-1 and 8.53 pmol oocyte-1 h-1 and 10.77 pmol oocyte-1 h-1 and 6.50 pmol oocyte-1 h-1 and 9.34 pmol oocyte-1 h-1
PfCRTDd2 transport activity 300 µM CQ pH 4.5 (300 µM CQ, pH 4.5, individual replicates (Fig 4a)): 8.53 pmol oocyte-1 h-1 and 10.77 pmol oocyte-1 h-1 and 6.50 pmol oocyte-1 h-1 and 9.34 pmol oocyte-1 h-1
PfCRTDd2 transport activity (300 µM CQ, pH 5.0, 60 min): 10.68 pmol oocyte-1 h-1
PfCRTDd2 transport activity 300 µM CQ pH 5.0 (300 µM CQ, pH 5.0, individual replicates (Fig 4a)): 10.67 pmol oocyte-1 h-1 and 9.04 pmol oocyte-1 h-1 and 12.33 pmol oocyte-1 h-1
PfCRTDd2 transport activity (300 µM CQ, pH 5.5, 60 min): 12.81 pmol oocyte-1 h-1
PfCRTDd2 transport activity 300 µM CQ pH 5.5 (300 µM CQ, pH 5.5, individual replicates (Fig 4a)): 13.73 pmol oocyte-1 h-1 and 12.01 pmol oocyte-1 h-1 and 12.69 pmol oocyte-1 h-1
PfCRTDd2 transport activity (300 µM CQ, pH 6.0, 60 min): 15.42 pmol oocyte-1 h-1 and 15.31 pmol oocyte-1 h-1 and 16.86 pmol oocyte-1 h-1 and 14.10 pmol oocyte-1 h-1
PfCRTDd2 transport activity 300 µM CQ pH 6.0 (300 µM CQ, pH 6.0, individual replicates (Fig 4a)): 15.31 pmol oocyte-1 h-1 and 16.86 pmol oocyte-1 h-1 and 14.10 pmol oocyte-1 h-1
PfCRTDd2-mediated CQ transport activity (300 µM CQ, time 0 min): 0.00 pmol oocyte-1
PfCRTDd2-mediated CQ transport activity (300 µM CQ, time 30 min): 9.78 pmol oocyte-1
PfCRTDd2-mediated CQ transport activity (300 µM CQ, time 60 min): 14.63 pmol oocyte-1
